# Laboratory results: paper PMC11984586, “A novel spider toxin as a selective antagonist of the Kv1 subfamily of voltage-gated potassium channels through gating modulation” (The Journal of Biological Chemistry, 2025)
# Bridge positions count the residues as written; N and C are the ends. Peptide text beside a SMILES is read from it.
# Legend:
# Type in all cases: cell-based
# Kv1.7/A256T = target: T1, Kv1.7/A256T (Homo sapiens, UniProt Q96RP8, A256T); experiment: Whole-cell patch clamp, Kv1.7 point mutant
# T1 construct: expressed in transfected cells; host or cells: CHO-K1
# From the text: This observation prompted further exploration of the potential function of the homologous residue in the Kv1.7 channel, where the corresponding site is occupied by an alanine.
# (§1) The cDNA of hKv1.1, hKv1.2, hKv1.3, rKv1.4, hKv1.5, mKv1.6, and hKv1.7 were subcloned into mammalian expression vectors pcDNA3.1 or pCMV-blank vectors, as well as other plasmids described previously ([35]). Channel mutants were generated by site-directed mutations. Briefly, the parental channel plasmid was amplified using a pair of oppositely directed primers harboring the designed mutation site, with KOD Fx (TOYOBO Co, Ltd). […]
# (§2) CHO-K1 cells were selected for expressing Kv channels due to their lack of endogenous Kv channels, while HEK293 or ND7/23 cells were used for Nav and Cav channel expression. […] After 4 to 6 h transfection, cells were seeded onto poly-lysine–coated coverslips, and 24 to 36 h later, transfected cells were ready for patch-clamp analysis. […]
# (§3) For Kv current recordings, the bath solution contained (in mM) the following: 140 NaCl, 5 KCl, 1 MgCl2, 2 CaCl2, 10 glucose, and 10 Hepes (pH 7.3, adjusted with NaOH), and the pipette solution contained (in mM) the following: 140 KCl, 2.5 MgCl2, 11 EGTA, and 10 Hepes (pH 7.3, adjusted with KOH). […] The steady-state fast inactivation of Kv1.3 was measured using a two-pulses protocol. […]
# Kv1.2/Y266A = target: T2, Kv1.2/Y266A (Homo sapiens, UniProt P16389, Y266A); experiment: Whole-cell patch clamp, Tyr-to-Ala mutant homologous to Kv1.3 Y339; details: +30 mV, mean ± SD, n = 4–6
# T2 construct: expressed in transfected cells; host or cells: CHO-K1
# From the text: Building on the identification of key amino acid residues in Kv1.3 channel that interact with MrVIII through alanine-scanning mutagenesis, we extended our analysis to explore these residues across other Kv1 subfamily channels. […] However, MrVIII retained substantial inhibitory potency on Kv1.2/Y266A mutant, albeit without fully blocking the channel current. […] The profound reduction in MrVIII's effect across homologous mutants supports the idea that it binds to a conserved region.
# as §1, with “Ltd). The resulting PCR mix was treated with FastDigest DpnI (Thermo Fisher Scientific) to remove the methylated template.” for “Ltd).”
# as §2
# hKv1.1 = target: T3, hKv1.1 (Homo sapiens, UniProt Q09470); experiment: Whole-cell patch clamp, Kv1.1 ionic current in CHO-K1 cells
# T3 construct: expressed in transfected cells; host or cells: CHO-K1
# Experimental: The cDNA of hKv1.1, hKv1.2, hKv1.3, rKv1.4, hKv1.5, mKv1.6, and hKv1.7 were subcloned into mammalian expression vectors pcDNA3.1 or pCMV-blank vectors, as well as other plasmids described previously ([35]). Channel mutants were generated by site-directed mutations. Briefly, the parental channel plasmid was amplified using a pair of oppositely directed primers harboring the designed mutation site, with KOD Fx (TOYOBO Co, Ltd). The resulting PCR mix was treated with FastDigest DpnI (Thermo Fisher Scientific) to remove the methylated template. Ten microliters of the digested product was then used to transform 100 μl E. coli DH5α competent cells. Transformants were randomly picked and sequenced to confirm the presence of the intended mutation.
# CHO-K1 cells were selected for expressing Kv channels due to their lack of endogenous Kv channels, while HEK293 or ND7/23 cells were used for Nav and Cav channel expression. CHO-K1 cells were cultured in a Dulbecco's modified Eagle's medium/Ham's F-12 nutrient mixture (DMEM-F12) medium, and HEK293T and ND7/23 cells in DMEM medium, all supplemented with 10% fetal bovine serum and 1% penicillin-streptomycin (all from Gibco, Thermo Fisher Scientific, Inc) under standard conditions (37 °C, 5% CO2, and saturated humidity). These cell lines were purchased from Stem Cell Bank, Chinese Academy of Sciences. Channel plasmids were cotransfected with pEGFP-N1 (encoding GFP) into the respective cells using lipofectamine 2000, following the manufacturer's instructions (Invitrogen, Thermo Fisher Scientific, Inc.). Nav1.9-GFP plasmid was transfected into ND7/23 using the X-tremeGENE HP DNA Transfection Reagent (Roche). After 4 to 6 h transfection, cells were seeded onto poly-lysine–coated coverslips, and 24 to 36 h later, transfected cells were ready for patch-clamp analysis.
# Patch clamp experiments were conducted using an electrophysiology platform comprising a MultiClamp 700B amplifier and an Axon Digidata 1550 AD/DA convertor (Axon Instruments). Data acquisition was performed with pClamp 10.5 software (Axon Instruments). All experiments were performed at room temperature.
# as §3, with “KOH). Series resistance was maintained below 10 MΩ and compensated to 80%. […] Whole cell conductance (G) at each depolarizing voltage (V) was determined using the equation: G = I/(V−Vrev), where I is the current amplitude, and Vrev is the reversal potential.” for “KOH).”
# T3 sequence (Q09470 whole entry): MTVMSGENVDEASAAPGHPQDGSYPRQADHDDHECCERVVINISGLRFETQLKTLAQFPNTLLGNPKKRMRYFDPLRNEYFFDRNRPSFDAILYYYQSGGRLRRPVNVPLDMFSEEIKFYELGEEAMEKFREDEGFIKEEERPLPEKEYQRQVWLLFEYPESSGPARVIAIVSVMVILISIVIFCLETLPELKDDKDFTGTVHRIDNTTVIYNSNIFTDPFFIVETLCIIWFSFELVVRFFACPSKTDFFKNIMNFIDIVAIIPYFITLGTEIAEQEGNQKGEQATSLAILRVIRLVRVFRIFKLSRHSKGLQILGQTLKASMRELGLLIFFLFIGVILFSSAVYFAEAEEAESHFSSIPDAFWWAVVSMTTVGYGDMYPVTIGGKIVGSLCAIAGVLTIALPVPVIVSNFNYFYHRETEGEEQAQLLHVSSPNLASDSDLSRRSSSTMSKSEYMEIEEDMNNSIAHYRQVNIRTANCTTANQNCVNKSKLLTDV
# T1 sequence (Q96RP8 whole entry A256T): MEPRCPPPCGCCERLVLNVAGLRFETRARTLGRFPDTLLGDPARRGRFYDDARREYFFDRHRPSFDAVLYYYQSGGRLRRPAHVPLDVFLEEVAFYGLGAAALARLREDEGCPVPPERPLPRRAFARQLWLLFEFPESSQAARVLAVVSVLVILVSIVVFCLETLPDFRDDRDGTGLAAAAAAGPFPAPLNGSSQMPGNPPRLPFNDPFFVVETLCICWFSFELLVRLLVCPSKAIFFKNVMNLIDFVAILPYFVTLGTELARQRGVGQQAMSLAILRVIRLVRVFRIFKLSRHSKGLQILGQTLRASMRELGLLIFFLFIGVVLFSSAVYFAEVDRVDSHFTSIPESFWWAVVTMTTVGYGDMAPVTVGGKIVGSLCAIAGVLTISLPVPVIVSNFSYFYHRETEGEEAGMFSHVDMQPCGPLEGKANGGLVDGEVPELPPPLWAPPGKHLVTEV
# T2 sequence (P16389 whole entry Y266A): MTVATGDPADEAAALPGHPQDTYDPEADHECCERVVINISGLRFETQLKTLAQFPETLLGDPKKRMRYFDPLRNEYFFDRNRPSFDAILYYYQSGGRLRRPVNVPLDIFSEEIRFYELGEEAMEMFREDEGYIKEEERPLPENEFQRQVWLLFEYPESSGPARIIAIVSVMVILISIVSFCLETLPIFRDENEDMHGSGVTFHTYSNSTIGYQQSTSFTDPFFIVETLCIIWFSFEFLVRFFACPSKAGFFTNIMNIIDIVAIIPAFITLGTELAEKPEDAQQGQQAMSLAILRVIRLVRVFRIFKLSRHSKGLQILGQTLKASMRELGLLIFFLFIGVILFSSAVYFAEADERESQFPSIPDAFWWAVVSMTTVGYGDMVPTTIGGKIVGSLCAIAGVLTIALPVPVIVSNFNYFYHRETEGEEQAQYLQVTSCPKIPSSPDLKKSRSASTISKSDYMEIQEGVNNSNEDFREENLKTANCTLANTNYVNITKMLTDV
structure (smiles),measurement,setting,value
"CC[C@H](C)[C@@H]1NC(=O)[C@H](Cc2ccc(O)cc2)NC(=O)[C@H](CCC(N)=O)NC(=O)[C@@H]2CCCN2C(=O)[C@@H]2CSSC[C@H](NC(=O)[C@H](C)NC(=O)[C@H](CO)NC(=O)[C@H](CCC(=O)O)NC(=O)[C@H](CCC(=O)O)NC(=O)[C@@H](N)[C@@H](C)O)C(=O)NCC(=O)NCC(=O)N[C@@H](Cc3ccccc3)C(=O)N[C@@H](CC(N)=O)C(=O)N[C@@H](C)C(=O)N[C@@H](CCCNC(=N)N)C(=O)N[C@H]3CSSC[C@H](NC1=O)C(=O)N[C@@H](CCCCN)C(=O)NCC(=O)N[C@@H](Cc1c[nH]c4ccccc14)C(=O)N[C@@H](CCCNC(=N)N)C(=O)N[C@@H]([C@@H](C)O)C(=O)N[C@@H](CCCCN)C(=O)N[C@@H](CCCNC(=N)N)C(=O)N[C@H](C(=O)N[C@@H](CC(C)C)C(=O)N[C@@H](CC(N)=O)C(=O)N1CCC[C@H]1C(=O)O)CSSC[C@H](NC(=O)[C@H](CCCCN)NC(=O)[C@H](Cc1c[nH]cn1)NC(=O)[C@H](CC(C)C)NC(=O)[C@@H]1CCCN1C3=O)C(=O)N2 [MrVIII] (H-TEESACGGFNARCPLHKCCPQYICKGWRTKRCLNP-OH; disulfide 6-19, 13-24, 18-32; N-terminus and C-terminus assumed)",IC50,"Kv1.7/A256T; +30 mV, mean ± SD, n = 6, SD, read-out: IC50, Kv1.7/A256T current (full inhibition)",138 ± 50.3 nM
same,potency on Kv1.7/A256T weaker than on the Kv1.3 channel,Kv1.7/A256T; ratio of IC50 values,approximately 28 fold
same,IC50,Kv1.2/Y266A; current at 50 ms,418 ± 41.2 nM
same,"inhi%(495 ms), Kv1.2/Y266A current",Kv1.2/Y266A; current at 495 ms,36.9 ± 14.1%
same,"inhi%(495 ms), Kv1.1 current","hKv1.1; 10 μM (saturating), current at 495 ms, +30 mV, mean ± SD, SD",23.9 ± 18.5%
same,inhibitory effect on Kv1.1 current at 495 ms once depolarizing voltage exceeded +40 mV,"hKv1.1; 10 μM MrVIII, I-V protocol",negligible
same,inhibition at 10 µM,"hKv1.1; CHO-K1, 10 μM MrVIII, I-V protocol, holding −80 mV, mean ± SD, n = 5–7, SD, read-out: inhibition of Kv1.1 current at 50 ms at +100 mV",11.6 ± 7.9%
same,IC50,"hKv1.1; current measured at 50 ms of a 500 ms depolarization to +30 mV, mean ± SD, n = 4–7, SD",50.9 ± 21.7 nM
